Read-outs that look alike come from different tables or passages of the source.
Assays:
Type in all cases: in vivo
[1] = system: Echinochloa crus-galli (ECHCG); experiment: greenhouse post-emergence herbicidal efficacy against ECHCG
Procedure: (§1) All trials whose results are shown were conducted in a greenhouse by the methodology specified below. The effect of the inventive herbicidal compositions was examined on the following harmful plants 14 and 21 days after application:
(§2) Echinochloa crus-galli (ECHCG), Eleusine indica (ELEIN), Setaria viridis (SETVI), Amaranthus retroflexus (AMARE), Chenopodium album (CHEAL), Kochia scoparia (KCHSC), Solanum nigrum (SOLNI), Avena fatua (AVEFA), Bromus sterilis (BROST), Lolium multiflorum (LOLMU), Phalaris minor (PHAMI), Poa annua (POAAN), Galium aparine (GALAP), Matricaria inodora (MATIN) and Polygonum convolvulus (POLCO).
(§3) The harmful plant seeds were sown in pots (diameter 8 cm) with sandy loam soil and germinated under optimal conditions. The inventive herbicidal compositions or the active ingredients alone were applied post-emergence to the planted pots with a spray volume of 300 L/ha. The trial was conducted in a greenhouse under optimum growth conditions. The herbicidal effects were assessed visually by comparison of untreated and treated plants. The percentages mean: 0%=no effects, 100%=the plants die off completely). The percentages are used to calculate interactions between individual treatments and combination treatments according to S. R. Colby, Weeds 15, pages 20 to 22 (1967).
(§4) The abbreviations mean: • a.i.=active ingredient • E^C=expected value according to Colby (E^C=A+B−A×B/100) • Diff: =difference (%) of measured value from expected value (%) (measured value minus expected value)
(§5) Assessment: • measured value E is greater than E^C:->synergism (+ diff.) • measured value E equals E^C:->additive effect • measured value E is smaller than E^C:->antagonism(− diff.)

Eleusine indica (ELEIN) = experiment: greenhouse post-emergence herbicidal efficacy against ELEIN; details: for Efficacy: 2 g of a.i./ha; for pest or weed control at 300 g/ha / pest or weed control at 1200 g/ha: Eleusine indica, post-emergence, read-out: Efficacy
Procedure: as §1, §2, §3, §4, §5

Setaria viridis (SETVI) = experiment: greenhouse post-emergence herbicidal efficacy against SETVI
Procedure: as §1, §2, §3, §4, §5

[2] = system: Amaranthus retroflexus (AMARE); experiment: greenhouse post-emergence herbicidal efficacy against AMARE
Procedure: as §1, §2, §3, §4, §5

Solanum nigrum (SOLNI) = experiment: greenhouse post-emergence herbicidal efficacy against SOLNI
Procedure: as §1, §2, §3, §4, §5

Avena fatua (AVEFA) = experiment: greenhouse post-emergence herbicidal efficacy against AVEFA
Outline: (§6)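 In the greenhouse, herbicidal compositions and their individual active ingredients are applied post-emergence at 300 L/ha. Damage is scored by eye against untreated controls on a 0–100% scale at 14 and 21 days.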

Bromus sterilis (BROST) = experiment: greenhouse post-emergence herbicidal efficacy against BROST
Outline: as §6

[3] = system: Lolium multiflorum (LOLMU); experiment: greenhouse post-emergence herbicidal efficacy against LOLMU
Outline: as §6

Phalaris minor (PHAMI) = experiment: greenhouse post-emergence herbicidal efficacy against PHAMI
Outline: as §6

Galium aparine (GALAP) = experiment: greenhouse post-emergence herbicidal efficacy against GALAP
Outline: as §6

[4] = system: Matricaria inodora (MATIN); experiment: greenhouse post-emergence herbicidal efficacy against MATIN
Outline: as §6

[5] = system: Polygonum convolvulus (POLCO); experiment: greenhouse post-emergence herbicidal efficacy against POLCO
Outline: as §6

DIGSA = experiment: greenhouse post-emergence herbicidal efficacy against DIGSA
Procedure: as §1, §3, §4, §5

[6] = 14 days after application, 0.5 g of a.i./ha
[7] = 21 days after application, 0.5 g of a.i./ha
[8] = 21 days after application, 2 g of a.i./ha
[9] = 14 days after application, 2.5 g of a.i./ha
[10] = 14 days after application, 10 g of a.i./ha
[11] = 21 days after application, g of a.i./ha: A1-36 2.5, flurtamone 80
[12] = 21 days after application, g of a.i./ha: A1-36 2.5, flurtamone 320
[13] = 21 days after application, g of a.i./ha: A1-36 10, flurtamone 80
[14] = 21 days after application, g of a.i./ha: A1-36 10, flurtamone 320
[15] = 14 days after application, 300 g of a.i./ha
[16] = 14 days after application, 1200 g of a.i./ha
[17] = 21 days after application, 300 g of a.i./ha
[18] = 21 days after application, 1200 g of a.i./ha

Structure (SMILES): Cc1nnc(NC(=O)c2ccc(C(F)(F)F)c(S(C)(=O)=O)c2Cl)o1 [A1-36]
- Efficacy [1, 6]: 10%
- Efficacy ([1]; 14 days after application, 2 g of a.i./ha): 40%
- Efficacy [1, 7]: 0%
- Efficacy [1, 8]: 20%
- Efficacy (Eleusine indica (ELEIN); 14 days after application): 50%
- Efficacy (Eleusine indica (ELEIN); 21 days after application): 30%
- Efficacy (Setaria viridis (SETVI); [8]): 65%
- Efficacy [2, 7]: 20%
- Efficacy [2, 8]: 70%
- Efficacy (Solanum nigrum (SOLNI); [8]): 50%
- Efficacy (Avena fatua (AVEFA); [9]): 0%
- Efficacy (Avena fatua (AVEFA); [10]): 15%
- Efficacy (Avena fatua (AVEFA); [11]): 10%
- Efficacy (Avena fatua (AVEFA); [12]): 10%
- Efficacy (Avena fatua (AVEFA); [13]): 15%
- Efficacy (Avena fatua (AVEFA); [14]): 15%
- Efficacy (Bromus sterilis (BROST); [9]): 0%
- Efficacy (Bromus sterilis (BROST); [11]): 5%
- Efficacy (Bromus sterilis (BROST); [12]): 5%
- Efficacy [3, 10]: 3%
- Efficacy [3, 13]: 0%
- Efficacy (Phalaris minor (PHAMI); [9]): 0%
- Efficacy (Phalaris minor (PHAMI); [10]): 30%
- Efficacy (Phalaris minor (PHAMI); [13]): 20%
- Efficacy (Galium aparine (GALAP); [9]): 5%
- Efficacy (Galium aparine (GALAP); [10]): 25%
- Efficacy (Galium aparine (GALAP); [11]): 0%
- Efficacy (Galium aparine (GALAP); [13]): 25%
- Efficacy (Galium aparine (GALAP); [14]): 25%
- Efficacy [4, 9]: 15%
- Efficacy [4, 10]: 40%
- Efficacy [4, 11]: 0%
- Efficacy [4, 12]: 0%
- Efficacy [4, 13]: 15%
- Efficacy [4, 14]: 15%
- Efficacy [5, 9]: 0%
- Efficacy [5, 13]: 3%
- Efficacy [5, 14]: 3%
- Efficacy (DIGSA; [6]): 10%
- Efficacy (DIGSA; [7]): 10%

Structure (SMILES): O=c1[nH]c2c(c(=O)n1C1CCCCC1)CCC2 [lenacil]
- Efficacy [1, 15]: 0%
- Efficacy [1, 16]: 0%
- Efficacy [1, 17]: 0%
- Efficacy [1, 18]: 0%
- pest or weed control at 300 g/ha (Eleusine indica (ELEIN); 336 h): 0%
- pest or weed control at 1200 g/ha (Eleusine indica (ELEIN); 336 h): 0%
- pest or weed control at 300 g/ha (Eleusine indica (ELEIN); 504 h): 0%
- pest or weed control at 1200 g/ha (Eleusine indica (ELEIN); 504 h): 0%
- Efficacy (Setaria viridis (SETVI); [15]): 0%
- Efficacy (Setaria viridis (SETVI); [16]): 0%
- Efficacy (Setaria viridis (SETVI); [17]): 0%
- Efficacy (Setaria viridis (SETVI); [18]): 0%
- Efficacy [2, 16]: 0%
- Efficacy [2, 17]: 0%
- Efficacy [2, 18]: 0%
- Efficacy (Solanum nigrum (SOLNI); [15]): 0%
- Efficacy (Solanum nigrum (SOLNI); [16]): 0%
- Efficacy (Solanum nigrum (SOLNI); [17]): 0%
- Efficacy (Solanum nigrum (SOLNI); [18]): 0%
- Efficacy (DIGSA; [15]): 0%
- Efficacy (DIGSA; [16]): 0%
- Efficacy (DIGSA; [17]): 0%
- Efficacy (DIGSA; [18]): 0%

From patent US10111435B2, “Herbicidal compositions containing N-(1,3,4-oxadiazol-2-yl)-aryl carboxylic acid amides” (BAYER CROPSCIENCE AKTIENGESELLSCHAFT, priority 2013, dated 2018)
